Test results from patent US6362206B1, “Azole compounds, their production and use” (Takeda Chemical Industries, Ltd., priority 1995, dated 2002).

Assays:
Candida albicans TA = assay: Protective effect against Candida albicans infection in mice (oral, ED50 from survival rate); type: in vivo; conditions: Crj: CDF1 mice inoculated i.v. with minimum lethal dose of Candida albicans TA, single oral dose immediately after infection as 30% HPCD solution, Reed and Muench method from survival rate 7 days after infection; for ED50: 168 h
Protocol: Test Method: Five-week-old Crj: CDF1 mice were inoculated with the minimum lethal dose of Candida albicans TA intravenously. The test compounds were administered orally once immediately after infection as a 30% HPCD (hydroxypropyl-β-cyclodextrin) solution. The activity was expressed in terms of ED50 value calculated by the Reed and Muench method from the survival rate 7 days after infection.

Molecule | ED50 (Candida albicans TA) | melting point | ED50 (mg/kg) PO (Candida albicans TA)
C[C@@H](N1CCN(c2ccc(-n3cncn3)cc2)C1=O)[C@](O)(Cn1cncn1)c1ccccc1F [Compound 39, 1-[(1R,2R)-2-(2-fluorophenyl)-2-hydroxy-1-methyl-3-(1H-1,2,4-triazol-1-yl)propyl]-3-[4-(1H-1,2,4-triazol-1-yl)phenyl]-2-imidazolidinone] | 0.5 mg/kg |  | 
C[C@@H](n1ccn(-c2ccc(-n3ncnn3)cc2)c1=O)[C@](O)(Cn1cncn1)c1ccccc1F [Compound 40, 1-[(1R,2R)-2-(2-fluorophenyl)-2-hydroxy-1-methyl-3-(1H-1,2,4-triazol-1-yl)propyl]-3-[4-(2H-2-tetrazolyl)phenyl]-2(1H,3H)-imidazolone] | 0.35 mg/kg |  | 
C[C@@H](n1ncn(-c2ccc(-n3ncnn3)cc2)c1=O)[C@](O)(Cn1cncn1)c1ccc(F)cc1F [Compound 25, 2-[(1R,2R)-2-(2,4-difluorophenyl)-2-hydroxy-1-methyl-3-(1H-1,2,4-triazol-1-yl)propyl]-4-[4-(2H-2-tetrazolyl)phenyl]-3(2H,4H)-1,2,4-triazolone] | 0.088 mg/kg |  | 
C[C@@H](n1ccn(-c2ccc(-n3ncnn3)cc2)c1=O)[C@](O)(Cn1cncn1)c1ccc(F)cc1F [Compound 26, 1-[(1R,2R)-2-(2,4-difluorophenyl)-2-hydroxy-1-methyl-3-(1H-1,2,4-triazol-1-yl)propyl]-3-[4-(2H-2-tetrazolyl)phenyl]-2(1H,3H)-imidazolone] | 0.16 mg/kg |  | 
C[C@@H](n1ccn(-c2ccc(-n3nccn3)cc2)c1=O)[C@](O)(Cn1cncn1)c1ccc(F)cc1F [Compound 13, 1-[(1R,2R)-2-(2,4-difluorophenyl)-2-hydroxy-1-methyl-3-(1H-1,2,4-triazol-1-yl)propyl]-3-[4-(2H-1,2,3-triazol-2-yl)phenyl]-2(1H,3H)-imidazolone] | 0.18 mg/kg | 182 to 185 °C | 
C[C@@H](n1ncn(-c2ccc(-n3cccn3)cc2)c1=O)[C@](O)(Cn1cncn1)c1ccc(F)cc1F [Compound 19, 2-[(1R,2R)-2-(2,4-difluorophenyl)-2-hydroxy-1-methyl-3-(1H-1,2,4-triazol-1-yl)propyl]-4-[4-(1H-1-pyrazolyl)phenyl]-3(2H,4H)-1,2,4-triazolone] | 0.39 mg/kg |  | 
C[C@@H](n1ccn(-c2ccc(-n3cncn3)cc2)c1=O)[C@](O)(Cn1cncn1)c1ccccc1F [Compound 38, 1-[(1R,2R)-2-(2-fluorophenyl)-2-hydroxy-1-methyl-3-(1H-1,2,4-triazol-1-yl)propyl]-3-[4-[1H-1,2,4-triazol-1-yl)phenyl]-2(1H,3H)-imidazolone] | 0.5 mg/kg |  | 
1-[(1R,2R)-2-(2,4-difluorophenyloy)-2-hydroxy-1-methyl-3-(1H-1,2,4-triazol-1-yl)propyl]-3-[4-(2H-1,2,3-triazol-2-yl)phenyl]-2-imidazolidinone [Compound 14] |  |  | 0.32 mg/kg
C[C@@H](N1CCN(c2ccc(-n3nccn3)cc2)C1=O)[C@](O)(Cn1cncn1)c1ccccc1F [Compound 35, 1-[(1R,2R)-2-(2-fluorophenyl)-2-hydroxy-1-methyl-3-(1H-1,2,4-triazol-1-yl)propyl]-3-[4-(2H-1,2,3-triazol-2-yl)phenyl]-2-imidazolidinone] | 0.71 mg/kg | 178 to 179 °C | 
C[C@@H](N1CCN(c2ccc(-n3ccnn3)cc2)C1=O)[C@](O)(Cn1cncn1)c1ccccc1F [Compound 34, [(1R,2R)-2-(2-fluorophenyl)-2-hydroxy-1-methyl-3-(1H-1,2,4-triazol-1-yl)propyl]-3-[4-(1H-1,2,3-triazol-1-yl)phenyl]-2-imidazolidinone] | 0.8 mg/kg |  | 
C[C@@H](n1ccn(-c2ccc(-n3cnnn3)cc2)c1=O)[C@](O)(Cn1cncn1)c1ccc(F)cc1F [Compound 42, 1-[(1R,2R)-2-(2,4-difluorophenyl)-2-hydroxy-1-methyl-3-(1H-1,2,4-triazol-1-yl)propyl]-3-[4-(1H-1-tetrazolyl)phenyl]-2(1H,3H)-imidazolone] | 0.22 mg/kg |  | 
1-[((1R,2R)-2-(2,4-difluorophenyl)-2-hydroxy-1-methyl-3-(1H-1,2,4-triazol-1-yl)propyl]-3-[4-(1H-1,2,4-triazol-1-yl)phenyl]-2(1H,3H)-imidazolone [Compound 9] |  |  | 0.16 mg/kg
C[C@@H](N1CCN(c2ccc(-n3cnnn3)cc2)C1=O)[C@](O)(Cn1cncn1)c1ccccc1F [Compound 45, 1-[(1R,2R)-2-(2-fluorophenyl)-2-hydroxy-1-methyl-3-(1H-1,2,4-triazol-1-yl)propyl]-3-[4-(1H-1-tetrazolyl)phenyl]-2-imidazolidinone] | 0.45 mg/kg |  | 
C[C@@H](N1CCN(c2ccc(-n3ncnn3)cc2)C1=O)[C@](O)(Cn1cncn1)c1ccc(F)cc1F [Compound 27, 1-[(1R,2R)-2-(2,4-difluorophenyl)-2-hydroxy-1-methyl-3-(1H-1,2,4-triazol-1-yl)propyl]-3-[4-(2H-2-tetrazolyl)phenyl]-2-imidazolidinone] | 0.18 mg/kg |  | 
C[C@@H](n1ccn(-c2ccc(-n3ccnn3)cc2)c1=O)[C@](O)(Cn1cncn1)c1ccc(F)cc1F [Compound 11, 1-[(1R,2R)-2-(2,4-difluorophenyl)-2-hydroxy-1-methyl-3-(1H-1,2,4-triazol-1-yl)propyl]-3-[4-(1H-1,2,3-triazol-1-yl)phenyl]-2(1H,3H)-imidazolone] | 0.45 mg/kg | 178 to 181 °C | 
C[C@@H](N1CCN(c2ccc(-n3ccnn3)cc2)C1=O)[C@](O)(Cn1cncn1)c1ccc(F)cc1F [Compound 12, 1-[(1R,2R)-2-(2,4-difluorophenyl)-2-hydroxy-1-methyl-3-(1H-1,2,4-triazol-1-yl)propyl]-3-[4-(1H-1,2,3-triazol-1-yl)phenyl]-2-imidazolidinone] | 0.71 mg/kg |  | 
C[C@@H](n1ncn(-c2ccc(-n3cncn3)cc2)c1=O)[C@](O)(Cn1cncn1)c1ccc(F)cc1F [Compound 5, 2-[(1R,2R)-2-(2,4-difluorophenyl)-2-hydroxy-1-methyl-3-(1H-1,2,4-triazol-1-yl)propyl]-4-[4-(1H-1,2,4-triazol-1-yl)phenyl]-3(2H,4H)-1,2,4-triazolone] | 0.22 mg/kg | 182 to 184 °C | 
C[C@@H](n1ncn(-c2ccc(-n3ccnn3)cc2)c1=O)[C@](O)(Cn1cncn1)c1ccc(F)cc1F [Compound 6, 2-[(1R,2R)-2-(2,4-difluorophenyl)-2-hydroxy-1-methyl-3-(1H-1,2,4-triazol-1-yl)propyl]-4-[4-(1H-1,2,3-triazol-1-yl)phenyl]-3(2H,4H)-1,2,4-triazolone] | 0.35 mg/kg | 219 to 220 °C | 
1-[(1R,2R)-2-(2-fluorophenyl)-2:-hydroxy-1-methyl-3-(1H-1,2,4-triazol-1-yl)propyl]-3-[4-(1H-1-tetrazolyl)phenyl]-2(1H,3H)-imidazolone [Compound 44] |  |  | 0.39 mg/kg
C[C@@H](n1ncn(-c2ccc(-n3nccn3)cc2)c1=O)[C@](O)(Cn1cncn1)c1ccc(F)cc1F [Compound 7, 2-[(1R,2R)-2-(2,4-difluorophenyl)-2-hydroxy-1-methyl-3-(1H-1,2,4-triazol-1-yl)propyl]-4-(4-(2H-1,2,3-triazol-2-yl)phenyl]-3(2H,4H)-1,2,4-triazolone] | 0.096 mg/kg | 213 to 215 °C | 
C[C@@H](N1CCN(c2ccc(-n3cnnn3)cc2)C1=O)[C@](O)(Cn1cncn1)c1ccc(F)cc1F [Compound 43, 1-[(1R,2R)-2-(2,4— difluorophenyl)-2-hydroxy-1-methyl-3-(1H-1,2,4-triazol-1-yl)propyl]-3-[4-(1H-1-tetrazolyl)phenyl]-2-imidazolidinone] | 0.89 mg/kg |  | 
C[C@@H](N1CCN(c2ccc(-n3ncnn3)cc2)C1=O)[C@](O)(Cn1cncn1)c1ccccc1F [Compound 41, 1-[(1R,2R)-2-(2-fluorophenyl)-2-hydroxy-1-methyl-3-(1H-1,2,4-triazol-1-yl)propyl]-3-[4-(2H-2-tetrazolyl)phenyl]-2-imidazolidinone] | 0.8 mg/kg |  | 
1-[(1R,2R)-2-(2,4-difluorophenyl)-2-hydroxy-1-methyl-3-(1H-1,2,4-triazol-17 yl)propyl]-3-[4-(1H-1,2,4-triazol-1-yl)phenyl]-2-imidazolidinone [Compound 10] |  |  | 0.32 mg/kg
